In US8617872B2, “Compositions for culturing spirochetes” (priority 2000, dated 2013):

How the values were obtained:
[1] = system: Borrelia burgdorferi infection in a human patient; test: Treatment of a human patient with Borrelia burgdorferi infection; assay type: in vivo; conditions: human patient with neurological distress, Borrelia burgdorferi positive
[2] = system: Borrelia; test: Antibiotic susceptibility test (MICROSCAN or disc diffusion) of patient samples positive for Borrelia; assay type: cell-based; conditions: total isolates 519
Text: (§1) This example describes the preparation of a pellet used for antimicrobial susceptibility testing of a culture sample. The procedure begins with a culture (e.g., prepared in the manner described in Example 2), where serum from a patient is inoculated in GSI-1 media and allowed to grow. In order to form pellet, an aliquot of this culture sample is placed in a microcentrifuge tube along with 10% SDS solution, and centrifuged at 14,000 g to disrupt the spirochetes and maximize the number of available eptiopic sites. The disrupted spirochetes were then cultured in an alternative growth medium made up of one part GSI-1 medium, one part 6.5% lactalbumin hydrolysate, one part 2% brain heart infusion, one part 10% pluronic fluid, and one part of the isolated (disrupted) spirochetes. This inoculated alternative growth medium was then allowed to incubate in the closed micro centrifuge tube until a distinctive pellet was observed (typically 7-14 days).
(§2) Following the observation of pellet formation, the tube was vortexed and incubated at 35° C. until a MacFarlane standard of between 8 to 12% turbidity was achieved. MICROSCAN antibiotic susceptibility microtiter plates were then inoculated with (e.g., 110 μl of) inoculum and allowed to incubate at 35° C. for 16-20 hours. The microtiter plates were then scanned for growth and respective sensitivity reaction (both the control well and the growth well). Table 2 below lists the various antimicrobials tested with this sample and whether growth of the organism was inhibited (susceptible) or whether the growth of the organism was not inhibited (resistant).
(§3) This Example describes the results for susceptibility tests that were performed on a large number of patient samples positive for either Borrelia or Leptospira. […] The results presented in Table 3 reveal the varied response of different types of spirochetes to different antibiotics.

[3] = system: Leptospira; test: Susceptibility testing of Leptospira isolated from a patient with symptoms of rheumatoid arthritis; assay type: cell-based; conditions: for Antibiotic Susceptibility Results, SERUM: Leptospira culture from serum of rheumatoid arthritis patient; for Antibiotic Susceptibility Results, URINE: Leptospira culture from urine of rheumatoid arthritis patient
Text: as §1
Following the observation of pellet formation, the tube was vortexed and incubated at 35° C. until a MacFarlane standard of between 8 to 12% turbidity was achieved. MICROSCAN antibiotic susceptibility microtiter plates were then inoculated with (e.g., 110 μl of) inoculum and allowed to incubate at 35° C. for 16-20 hours. The microtiter plates were then scanned for growth and respective sensitivity reaction (both the control well and the growth well).
This Example describes the diagnosis and treatment of a human patient with symptoms of rheumatoid arthritis. In particular, serum and urine samples from this patient were initially cultured on GSI-1 (e.g., as described in Example 2), and screened for the presence of spirochetes (e.g., as described in Example 3). […] These cultures were then used to produce pellets for antimicrobial susceptibility testing (e.g., as described in Example 6). The antimicrobial susceptibility tests were then carried out on each sample (e.g., as described in Example 7) with the antimicrobials listed below in Table 5.

[4] = system: Leptospira; test: Susceptibility testing of Leptospira isolated from a patient with symptoms of multiple sclerosis; assay type: cell-based; conditions: for Antibiotic Susceptibility Results, SERUM: Leptospira culture from serum of multiple sclerosis patient; for Antibiotic Susceptibility Results, URINE: Leptospira culture from urine of multiple sclerosis patient
Experimental: This example describes the preparation of a pellet used for antimicrobial susceptibility testing of a culture sample. […] In order to form pellet, an aliquot of this culture sample is placed in a microcentrifuge tube along with 10% SDS solution, and centrifuged at 14,000 g to disrupt the spirochetes and maximize the number of available eptiopic sites. […] This inoculated alternative growth medium was then allowed to incubate in the closed micro centrifuge tube until a distinctive pellet was observed (typically 7-14 days).
MICROSCAN antibiotic susceptibility microtiter plates were then inoculated with (e.g., 110 μl of) inoculum and allowed to incubate at 35° C. for 16-20 hours. The microtiter plates were then scanned for growth and respective sensitivity reaction (both the control well and the growth well).

[5] = system: E. coli; test: Antibiotic susceptibility test (MICROSCAN or disc diffusion), control organism E. coli; assay type: cell-based; conditions: total isolates 1
[6] = system: Tatumella; test: Antibiotic susceptibility test (MICROSCAN or disc diffusion), control organism Tatumella; assay type: cell-based; conditions: total isolates 2
Text: as §1, §2, §3

[7] = system: A. lwoffii; test: Antibiotic susceptibility test (MICROSCAN or disc diffusion), control organism A. lwoffii; assay type: cell-based; conditions: total isolates 1
[8] = system: Y. entero gp.; test: Antibiotic susceptibility test (MICROSCAN or disc diffusion), control organism Y. entero gp.; assay type: cell-based; conditions: total isolates 1
[9] = system: Treponema isolate; test: Antimicrobial susceptibility test (MICROSCAN plates) of a patient's Treponema isolate; assay type: cell-based; conditions: for RESULT (antibiotic susceptibility): Treponema infected patient's isolate, MICROSCAN plates, 35° C., 16-20 hours; for susceptibility profile from a specific human patient: text restating Example 7
Experimental: For susceptibility testing, the organisms harvested could be assayed using any suitable susceptibility assay (See, Example 7). In some embodiments of the present invention, MICROSCAN antibiotic susceptibility plates were inoculated and incubated. Following incubations, plates were scanned for growth and respective sensitivity reaction. […] For the results to be considered reliable, the no growth of organisms was accepted in the negative control well, while the positive control well had to have sufficient growth to be read. In some embodiments of the present invention, to confirm the presence or absence of growing spirochetes in the growth well, aliquots from the growth well were reinoculated with fresh growth media and after an incubation time (e.g., 7-10 days) the presence of the organisms was confirmed (e.g., by phase contrast microscopy or direct fluorescent antibody staining).
as §1
This example describes an antimicrobial susceptibility test performed for a human patient. The patient had previously been testing using GSI-1 medium (e.g., as described in Example 2) for the presence of any spirochetes. […] This culture sample was then transferred to a microcentrifuge tube, and a pellet for antimicrobial susceptibility testing was prepared as described in Example 6.
as §2

[10] = system: Leptospira; test: Antibiotic susceptibility test (MICROSCAN or disc diffusion) of patient samples positive for Leptospira; assay type: cell-based; conditions: total isolates 276
Text: as §1, §2, §3

[11] = system: Pseudomonas; test: Antibiotic susceptibility test (MICROSCAN or disc diffusion), control organism Pseudomonas; assay type: cell-based; conditions: total isolates 1
[12] = system: Borrelia and Leptospira; test: Susceptibility of several hundred patient samples having Borrelia and Leptospira infections (population effectiveness); assay type: cell-based
Experimental: In these experiments, several hundred patient samples were cultured on GSI-1 (e.g., as described in Example 2). These culture samples were then used to produce pellets for antimicrobial susceptibility testing as described in Example 6. The antimicrobial susceptibility tests were then carried out on each sample as described in Example 7 or by the disc diffusion method (e.g., instead of MICROSCAN) with the antimicrobials listed below in Table 3.

Molecule | patient response to treatment [1] | Antibiotic Susceptibility Test Results, Borrelia [2] | Antibiotic Susceptibility Results, SERUM [3] | Antibiotic Susceptibility Results, URINE [3] | Antibiotic Susceptibility Results, SERUM [4] | Antibiotic Susceptibility Results, URINE [4] | Antibiotic Susceptibility Test Results, E. coli [5] | Antibiotic Susceptibility Test Results, Tatumella [6] | Antibiotic Susceptibility Test Results, A. lwoffii [7] | Antibiotic Susceptibility Test Results, Y. entero gp. [8] | RESULT (antibiotic susceptibility) [9] | Antibiotic Susceptibility Test Results, Leptospira [10] | Antibiotic Susceptibility Test Results, Pseudomonas [11] | effectiveness in the population [12] | susceptibility profile from a specific human patient [9]
CO/N=C(\C(=O)N[C@@H]1C(=O)N2C(C(=O)O)=C(CSc3nc(=O)c(=O)[nH]n3C)CS[C@H]12)c1csc(N)n1 [ceftriaxone] | responded well until the medication was stopped |  |  |  |  |  |  |  |  |  |  |  |  |  | 
NC[C@H]1O[C@H](O[C@H]2[C@H](O)[C@@H](O[C@H]3O[C@H](CO)[C@@H](O)[C@H](N)[C@H]3O)[C@H](N)C[C@@H]2N)[C@H](N)C[C@@H]1O [Tobramycin] |  | 81% | Resistant | Resistant | Resistant | Resistant | 100% | 100% | 100% | 100% | Intermediate | 84% | 100% |  | 
C[C@H]1[C@H](NC(=O)/C(=N\OC(C)(C)C(=O)O)c2csc(N)n2)C(=O)N1S(=O)(=O)O [Aztreonam] |  | 11% | Resistant | Resistant | Resistant | Resistant | 100% | 0% | 100% | 0% | Susceptible | 15% | 100% | less than 20% | sensitive
CCN1CCN(C(=O)N[C@@H](C(=O)N[C@@H]2C(=O)N3[C@@H]2SC(C)(C)[C@@H]3C(=O)O)c2ccccc2)C(=O)C1=O [Piperacillin] |  | 60% | Resistant | Resistant | Resistant | Resistant | 100% | 100% | 100% | 100% | Susceptible | 55% | 100% |  | 
C[C@@H](O)[C@H]1C(=O)N2C(C(=O)O)=C(S[C@@H]3CN[C@H](C(=O)N(C)C)C3)[C@H](C)[C@H]12 [Meropenem] |  | 82% | Resistant | Resistant | Resistant | Resistant | 100% | 100% | 100% | 100% | Resistant | 75% | 100% |  | 
Amoxicillin/Clavulanate [Augmentin] |  | 90% | Susceptible | Susceptible | Resistant | Resistant | 100% | 100% |  | 100% | Resistant | 89% |  | over 80% | resistance
Ticarcillin/Clavulanate |  | 79% | Resistant | Resistant | Resistant | Resistant | 100% | 100% | 100% | 100% | Susceptible | 75% | 100% |  | 
